A short description of data set [1]: refractive index (Na D-line) (dimensionless). The settings on record: 101.33 kPa, Liquid, Standard Abbe refractometry.
The conditions of data set [2]: 101.33 kPa, Liquid, Vibrating tube method.

± gives the expanded uncertainty stated by the source.

What is called refractive index is a measure of how strongly the sample bends light. What is called mass density is the mass of a sample divided by its volume. For `COC(C)(C)C` [2-methoxy-2-methylpropane], the refractive index in data set [1] (298.15 K) is recorded as 1.3664 ± 0.0011. Also, the mass density in data set [2] (298.15 K) is 734.7 ± 2 kg/m3. With `CC(=O)C(C)C` [3-methyl-2-butanone], the refractive index in data set [1] (293.15 K) is listed as 1.3884 ± 0.0011. Further, the mass density in data set [2] (293.15 K) was determined as 804.8 ± 2.1 kg/m3. In the case of `CC(C)CCO` [3-methylbutan-1-ol], the refractive index in data set [1] (293.15 K) came to 1.4075 ± 0.0011. In data set [2] (293.15 K), the mass density is 808.4 ± 2.1 kg/m3.

Consider `CCCC(=O)CCC` [4-heptanone], for which the refractive index in data set [1] (293.15 K) is listed as 1.4068 ± 0.0011. Also, in data set [2] (293.15 K), the mass density was determined as 817.6 ± 2.2 kg/m3.

Turning to `CC(=O)CC(C)C` [4-methylpentan-2-one], in data set [1] (293.15 K), the refractive index is reported as 1.3958 ± 0.0011. Moreover, the mass density in data set [2] (298.15 K) stood at 796.1 ± 2.1 kg/m3. For `CCCCCCCC/C=C\CCCCCCCCO` [(Z)-9-octadecen-1-ol], the refractive index in data set [1] (293.15 K) amounted to 1.4601 ± 0.0011. The mass density in data set [2] (293.15 K) turned out to be 849 ± 2.3 kg/m3.

As for `CCCC(=O)O` [butanoic acid], the refractive index in data set [1] (293.15 K) came out at 1.3982 ± 0.0011. Besides, the mass density in data set [2] (298.15 K) was determined as 952.3 ± 2.5 kg/m3. Consider `CCC(C)=O` [butanone], for which the refractive index in data set [1] (293.15 K) was found to be 1.3793 ± 0.0011. Besides, the mass density in data set [2] (298.15 K) is on record as 798.2 ± 2.1 kg/m3. Regarding `CC(=O)OC1CCCCC1` [cyclohexyl ethanoate], the refractive index in data set [1] (293.15 K) is listed as 1.4421 ± 0.0011. Also, the mass density in data set [2] (293.15 K) worked out at 968.4 ± 2.6 kg/m3. In the same order, the values of `CCCCCCCCCCO` [decan-1-ol] are 1.4374 ± 0.0011 and 829.6 ± 2.2 kg/m3. In the same order, the values of `CCCCOC(=O)c1ccccc1C(=O)OCCCC` [dibutyl phthalate] are 1.4909 ± 0.0011 and 1047.1 ± 2.8 kg/m3.

For the compound `COC(=O)c1ccccc1C(=O)OC` [dimethyl 1,2-benzenedicarboxylate], the refractive index in data set [1] (293.15 K) is recorded as 1.5135 ± 0.0011. Further, the mass density in data set [2] (293.15 K) came out at 1190.4 ± 3.2 kg/m3.

Take `CCCCCCCCCCCCO` [dodecan-1-ol]: in data set [2] (297.15 K), the mass density is on record as 831.1 ± 2.2 kg/m3.

As for `CCOC(C)=O` [ethyl acetate], the refractive index in data set [1] (293.15 K) was found to be 1.372 ± 0.0011. For the same compound, the mass density in data set [2] (293.15 K) is on record as 900.1 ± 2.4 kg/m3.

Turning to `CCCCCC` [hexane], the refractive index in data set [1] (298.15 K) stood at 1.3729 ± 0.0011. Also, the mass density in data set [2] (298.15 K) is 660.4 ± 1.8 kg/m3. On to `CCCCCCCCCO` [nonan-1-ol], for which the refractive index in data set [1] (293.15 K) stood at 1.4327 ± 0.0011. For the same compound, the mass density in data set [2] (293.15 K) amounted to 828.5 ± 2.2 kg/m3.

For `Cc1ccccc1` [toluene], in data set [1] (293.15 K), the refractive index is 1.496 ± 0.0011. For the same compound, in data set [2] (293.15 K), the mass density is listed as 866.7 ± 2.3 kg/m3.

On to `CCCCCCCCN(CCCCCCCC)CCCCCCCC` [trioctylamine], for which, in data set [1] (292.15 K), the refractive index was found to be 1.4505 ± 0.0011. Further, in data set [2] (293.15 K), the mass density was 810.7 ± 2.2 kg/m3.

With `O` [water], in data set [1] (293.15 K), the refractive index came to 1.3324 ± 0.0011. In addition, the mass density in data set [2] (293.15 K) turned out to be 999.9 ± 2.7 kg/m3.

The values above are taken from the NIST ThermoML archive (doi:10.1021/je060025z).
